≈ marks a conversion by molar mass, not a printed value.
Experiments:
[1] = molecular target: Transient receptor potential cation channel subfamily V member 1 (Homo sapiens, UniProt Q8NER1); assay: Antagonist activity at human TRPV1 receptor by calcium influx assay; format: functional
Liver microsomes [2] = assay: Stability in human liver microsomes at 0.5 uM after 30 mins; format: ADME, Microsome; settings: 0.5 h
Liver microsomes [3] = assay: Stability in rat liver microsomes at 0.5 uM after 30 mins; format: ADME, Microsome; settings: 0.5 h
[4] = Half life in rat at 10 umol/kg; format: ADME, organism-based; settings: in vivo
[5] = Plasma clearance in rat at 10 umol/kg; format: ADME, organism-based
[6] = Protein binding in rat plasma; format: ADME, cell-free; settings: read-out: PPB (converted)
[7] = Volume of distribution in rat at 10 umol/kg; format: ADME, organism-based; settings: in vivo, read-out: Vbeta
Translocator protein = Translocator protein (Homo sapiens, UniProt P30536); assay: Binding affinity to peripheral benzodiazepine receptor
Homo sapiens = species: Homo sapiens; assay: Protein binding in human plasma; settings: read-out: PPB (converted)
Rattus norvegicus = assay: Effect on CFA-induced thermal hyperalgesia in po dosed rat; format: functional
[8] = Aqueous solubility at pH 6.8; format: physicochemical; settings: buffer
[9] = Aqueous solubility at pH 2.0; format: physicochemical
[10] = Oral bioavailability in dog; format: ADME, organism-based, Canis lupus familiaris; settings: in vivo
[11] = Oral bioavailability in rat at 10 umol/kg, po; format: ADME, organism-based; settings: in vivo
Adenosine receptor A3 = molecular target: T1, Adenosine receptor A3 (Homo sapiens, UniProt P0DMS8); assay: Binding affinity to adenosine A3 receptor
T1 sequence (P0DMS8 whole entry): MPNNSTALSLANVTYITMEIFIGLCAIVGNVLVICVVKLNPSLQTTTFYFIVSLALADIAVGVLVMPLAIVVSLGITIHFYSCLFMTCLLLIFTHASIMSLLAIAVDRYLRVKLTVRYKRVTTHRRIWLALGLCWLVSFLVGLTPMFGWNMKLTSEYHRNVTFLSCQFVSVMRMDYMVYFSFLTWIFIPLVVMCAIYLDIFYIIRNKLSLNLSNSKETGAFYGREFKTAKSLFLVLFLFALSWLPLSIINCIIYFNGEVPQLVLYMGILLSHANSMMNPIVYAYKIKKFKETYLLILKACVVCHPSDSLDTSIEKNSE

[12] = Binding affinity to sodium channel; set-up: species or system Homo sapiens
[13] = Cmax in rat at 10 umol/kg, po; format: ADME, organism-based; set-up: dose 10 umol/kg, route oral; settings: in vivo

Transient receptor potential cation channel subfamily V member 1, sequence (Q8NER1 whole entry): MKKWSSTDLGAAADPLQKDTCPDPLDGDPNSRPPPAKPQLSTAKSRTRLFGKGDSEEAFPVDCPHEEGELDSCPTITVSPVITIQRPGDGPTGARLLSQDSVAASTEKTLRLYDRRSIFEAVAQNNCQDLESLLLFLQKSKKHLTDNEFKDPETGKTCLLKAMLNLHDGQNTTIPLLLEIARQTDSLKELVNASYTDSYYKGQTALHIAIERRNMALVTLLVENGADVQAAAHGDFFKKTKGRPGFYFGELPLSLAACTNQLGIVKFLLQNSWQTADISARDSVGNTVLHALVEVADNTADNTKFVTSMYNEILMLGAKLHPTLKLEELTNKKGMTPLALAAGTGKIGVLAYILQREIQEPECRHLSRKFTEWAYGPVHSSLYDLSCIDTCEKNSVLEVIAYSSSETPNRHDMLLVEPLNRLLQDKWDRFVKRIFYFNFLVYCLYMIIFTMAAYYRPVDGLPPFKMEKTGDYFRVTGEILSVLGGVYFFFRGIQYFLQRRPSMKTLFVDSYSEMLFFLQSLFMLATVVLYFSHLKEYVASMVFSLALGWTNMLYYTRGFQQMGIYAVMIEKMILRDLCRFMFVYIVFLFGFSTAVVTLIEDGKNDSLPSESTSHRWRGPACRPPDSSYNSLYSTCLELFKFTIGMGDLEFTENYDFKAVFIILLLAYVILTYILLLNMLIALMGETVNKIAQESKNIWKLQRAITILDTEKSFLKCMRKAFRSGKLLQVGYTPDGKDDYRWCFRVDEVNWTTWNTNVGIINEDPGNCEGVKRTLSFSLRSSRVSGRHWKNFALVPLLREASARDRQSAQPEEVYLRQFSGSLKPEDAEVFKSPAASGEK
Translocator protein, sequence (P30536 whole entry): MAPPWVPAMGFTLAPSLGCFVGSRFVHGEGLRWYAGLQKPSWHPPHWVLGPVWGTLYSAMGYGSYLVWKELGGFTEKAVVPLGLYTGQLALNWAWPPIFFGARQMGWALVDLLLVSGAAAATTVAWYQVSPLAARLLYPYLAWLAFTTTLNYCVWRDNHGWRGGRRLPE

IC50 [1] [µM]	SMILES	further results
0.0021	O=C(NCc1ccc(C(F)(F)F)cc1)Nc1cccc2cnccc12	Stability (Liver microsomes [2]): 135 pmol/min/mg; Stability (Liver microsomes [3]): 383 pmol/min/mg
7.36	Cc1cc2c(NC(=O)NCc3ccc(N4Cc5ccccc5C4)c(F)c3)cccc2cn1	
0.19	O=C(NCc1ccc(N2CCCCCC2)cc1Cl)Nc1cccc2[nH]ncc12	
0.133	O=C(NCc1ccc(N2CCCCCC2)cc1C(F)(F)F)Nc1cccc2[nH]ncc12	
0.156	O=C(NCc1ccc(N2CCOCC2)cc1)Nc1cccc2cnc(Cl)cc12	
0.0073	O=C(NCc1ccc(N2CCCCC2)cc1)Nc1cccc2cnccc12	
0.0047	O=C(NCc1ccc(N2CCCCCCC2)cc1)Nc1cccc2cnccc12	
0.082	O=C(NCc1cc(F)c(N2[C@@H]3CC[C@H]2CC2(C3)OCCO2)cc1F)Nc1cccc2[nH]ncc12	
0.157	O=C1C[C@H]2CC[C@@H](C1)N2c1cc(F)c(CNC(=O)Nc2cccc3[nH]ncc23)cc1F	
0.0093	CC1CCN(c2ccc(CNC(=O)Nc3cccc4cnccc34)cc2)CC1	
0.091	O=C(NCc1ccc(N2CCOCC2)cc1)Nc1cccc2cnccc12	
0.0033	O=C(NCc1ccc(N2[C@@H]3CCC[C@H]2CC3)cc1)Nc1cccc2cnccc12	Stability (Liver microsomes [2]): 818 pmol/min/mg; Stability (Liver microsomes [3]): 247 pmol/min/mg
0.0432	O=C(NCc1ccc(N2[C@@H]3CCC[C@H]2CC3)c(Br)c1)Nc1cccc2[nH]ncc12	
0.0142	O=C(NCc1ccc(N2CCCCCC2)c(F)c1)Nc1cccc2[nH]ncc12	
0.0198	Cc1cc(CNC(=O)Nc2cccc3[nH]ncc23)ccc1N1[C@@H]2CCC[C@H]1CC2	
0.019	Cn1ncc2c(NC(=O)NCc3ccc(N4[C@@H]5CCC[C@H]4CC5)cc3Cc3ccccc3)cccc21	
0.0353	CC(C)c1cc(N2[C@@H]3CCC[C@H]2CC3)ccc1CNC(=O)Nc1cccc2[nH]ncc12	

IC50 [1] [µM]	SMILES	further results
0.0057	O=C(NCc1ccc(N2CCCCCC2)cc1C(F)(F)F)Nc1cccc2cnccc12	
0.0028	O=C(NCc1ccc(N2CCCCCC2)c(F)c1)Nc1cccc2cnccc12	half-life [4]: 0.69 h; clearance [5]: 1.8 L/h/kg; Vd [7]: 1.8 L/kg; ED50 (Rattus norvegicus): 30 µmol/kg; bioavailability [10]: 18%; bioavailability [11]: 10%; Stability (Liver microsomes [2]): 1223 pmol/min/mg; Stability (Liver microsomes [3]): 366 pmol/min/mg; Cmax [13]: 0.15 µg/mL
0.0103	CC(C)(C)CCc1cc(N2[C@@H]3CCC[C@H]2CC3)ccc1CNC(=O)Nc1cccc2[nH]ncc12	
0.0093	O=C(NCc1cc(F)c(N2CCOCC2)c(F)c1)Nc1cccc2cnccc12	
0.258	CC1CN(c2ccc(CNC(=O)Nc3cccc4cnccc34)cc2)CC(C)O1 (stereo not drawn)	
0.0098	Nc1cc2c(NC(=O)NCc3ccc(N4CCCCCC4)cc3)cccc2cn1	
0.157	CN(C)c1ccc(CNC(=O)Nc2cccc3cnccc23)cc1	
0.0033	O=C(NCc1ccc(N2CCCCCC2)cc1)Nc1cccc2cnccc12	
0.285	CCN1CCc2cc(CNC(=O)Nc3cccc4[nH]ncc34)ccc21	
0.902	Cn1c2ccccc2c2cc(CNC(=O)Nc3cccc4[nH]ncc34)ccc21	
0.0393	O=C(NCc1cc(F)c(N2CCCCCC2)c(F)c1)Nc1cccc2[nH]ncc12	
0.0046	O=C(NCc1ccc(N2CCCCCC2)c(C(F)(F)F)c1)Nc1cccc2cnccc12	Stability (Liver microsomes [2]): 643 pmol/min/mg; Stability (Liver microsomes [3]): 689 pmol/min/mg
0.0052	O=C(NCc1ccc(N2CCCCCC2)cc1Cl)Nc1cccc2cnccc12	
0.0038	Cc1cc2c(NC(=O)NCc3ccc(N4CCCCCC4)cc3)cccc2cn1	
0.0255	O=C(NCc1ccc(N2[C@@H]3CCC[C@H]2CC3)c(F)c1F)Nc1cccc2[nH]ncc12	
0.029	Cc1cc(N2[C@@H]3CCC[C@H]2CC3)ccc1CNC(=O)Nc1cccc2[nH]ncc12	

SMILES	IC50 [1] [µM]	further results
O=C(NCc1ccc(N2[C@@H]3CCC[C@H]2CC3)c(C(F)(F)F)c1)Nc1cccc2[nH]ncc12	0.0269	half-life [4]: 1.4 h; clearance [5]: 1 L/h/kg; fraction unbound [6]: 0.014; Vd [7]: 2.1 L/kg; IC50 (Translocator protein): > 5 µM; fraction unbound (Homo sapiens): 0.03; ED50 (Rattus norvegicus): 20 µmol/kg; solubility [8]: < 0.001 µg/mL; solubility [9]: 14 µg/mL (≈ 31.6 µM); bioavailability [10]: 46%; bioavailability [11]: 21%; IC50 (Adenosine receptor A3): > 5 µM; Stability (Liver microsomes [2]): 445 pmol/min/mg; Stability (Liver microsomes [3]): 315 pmol/min/mg; IC50 [12]: > 5 µM; Cmax [13]: 0.24 µg/mL
O=C(NCc1ccc(N2[C@@H]3CCC[C@H]2CC3)c(F)c1)Nc1cccc2[nH]ncc12	0.0148	Stability (Liver microsomes [2]): 516 pmol/min/mg; Stability (Liver microsomes [3]): 394 pmol/min/mg
O=C(NCc1ccc(N2[C@@H]3CCC[C@H]2CC3)cc1)Nc1cccc2[nH]ncc12	0.018	
O=C(NCc1ccc(N2[C@@H]3CCC[C@H]2CC3)cc1C(F)(F)F)Nc1cccc2[nH]ncc12	0.0545	
O=C(NCc1cc(F)c(N2[C@@H]3CCC[C@H]2CC3)c(F)c1)Nc1cccc2[nH]ncc12	0.0126	
O=C(NCc1ccc(N2[C@@H]3CCC[C@H]2CC3)cc1Cl)Nc1cccc2[nH]ncc12	0.0588	
O=C(NCc1ccc(N2[C@@H]3CCC[C@H]2CC3)c(Cl)c1)Nc1cccc2[nH]ncc12	0.0204	
